Test results published in doi:10.1101/2023.11.24.568596v1 (biorxiv, 2023).
Each block holds one compound with its values, some of them ahead of it.

Assays:
Settings in all cases: binder
[1] = biological target: SRC (Homo sapiens, UniProt P12931)
[2] = biological target: T1, ULK3 (Homo sapiens, UniProt Q6PHR2)
T1 sequence (Q6PHR2 1-472): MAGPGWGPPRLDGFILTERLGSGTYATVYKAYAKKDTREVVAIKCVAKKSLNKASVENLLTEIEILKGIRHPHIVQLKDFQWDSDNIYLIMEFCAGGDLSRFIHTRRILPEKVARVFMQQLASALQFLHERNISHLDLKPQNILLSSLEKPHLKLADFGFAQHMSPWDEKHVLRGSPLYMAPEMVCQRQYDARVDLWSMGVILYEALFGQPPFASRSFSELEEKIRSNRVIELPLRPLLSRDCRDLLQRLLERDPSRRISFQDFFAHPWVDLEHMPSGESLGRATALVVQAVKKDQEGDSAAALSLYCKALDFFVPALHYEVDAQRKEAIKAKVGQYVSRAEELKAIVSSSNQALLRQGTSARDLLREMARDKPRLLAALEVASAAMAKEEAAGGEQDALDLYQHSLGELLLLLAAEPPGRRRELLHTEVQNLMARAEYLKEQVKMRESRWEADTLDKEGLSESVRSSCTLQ

[3] = biological target: STLK3 (Homo sapiens, UniProt Q9UEW8)
[4] = biological target: T2, TTK (Homo sapiens, UniProt P33981)
T2 sequence (P33981 1-857): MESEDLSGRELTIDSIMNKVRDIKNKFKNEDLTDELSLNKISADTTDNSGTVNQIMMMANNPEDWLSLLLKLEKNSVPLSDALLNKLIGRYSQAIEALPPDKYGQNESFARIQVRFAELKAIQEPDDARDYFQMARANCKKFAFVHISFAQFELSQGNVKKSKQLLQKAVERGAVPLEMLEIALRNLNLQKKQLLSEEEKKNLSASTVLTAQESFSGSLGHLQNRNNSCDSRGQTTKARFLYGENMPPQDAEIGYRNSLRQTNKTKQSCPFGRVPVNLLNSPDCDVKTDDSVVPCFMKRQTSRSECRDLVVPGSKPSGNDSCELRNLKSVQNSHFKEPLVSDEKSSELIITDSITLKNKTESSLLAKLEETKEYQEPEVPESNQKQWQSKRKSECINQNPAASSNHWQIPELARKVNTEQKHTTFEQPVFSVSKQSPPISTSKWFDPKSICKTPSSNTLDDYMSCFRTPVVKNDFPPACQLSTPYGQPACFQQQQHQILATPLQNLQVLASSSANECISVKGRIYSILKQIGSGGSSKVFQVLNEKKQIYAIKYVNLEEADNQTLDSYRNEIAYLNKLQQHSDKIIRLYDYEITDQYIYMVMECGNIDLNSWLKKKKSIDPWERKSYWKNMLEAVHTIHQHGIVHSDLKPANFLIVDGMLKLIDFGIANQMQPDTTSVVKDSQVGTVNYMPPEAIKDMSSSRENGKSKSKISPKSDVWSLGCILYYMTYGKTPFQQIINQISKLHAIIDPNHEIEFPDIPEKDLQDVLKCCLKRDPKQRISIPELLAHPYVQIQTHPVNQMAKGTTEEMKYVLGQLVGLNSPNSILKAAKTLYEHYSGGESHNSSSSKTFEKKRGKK

[5] = biological target: T3, TLK1 (Homo sapiens, UniProt Q9UKI8)
T3 sequence (Q9UKI8 1-766): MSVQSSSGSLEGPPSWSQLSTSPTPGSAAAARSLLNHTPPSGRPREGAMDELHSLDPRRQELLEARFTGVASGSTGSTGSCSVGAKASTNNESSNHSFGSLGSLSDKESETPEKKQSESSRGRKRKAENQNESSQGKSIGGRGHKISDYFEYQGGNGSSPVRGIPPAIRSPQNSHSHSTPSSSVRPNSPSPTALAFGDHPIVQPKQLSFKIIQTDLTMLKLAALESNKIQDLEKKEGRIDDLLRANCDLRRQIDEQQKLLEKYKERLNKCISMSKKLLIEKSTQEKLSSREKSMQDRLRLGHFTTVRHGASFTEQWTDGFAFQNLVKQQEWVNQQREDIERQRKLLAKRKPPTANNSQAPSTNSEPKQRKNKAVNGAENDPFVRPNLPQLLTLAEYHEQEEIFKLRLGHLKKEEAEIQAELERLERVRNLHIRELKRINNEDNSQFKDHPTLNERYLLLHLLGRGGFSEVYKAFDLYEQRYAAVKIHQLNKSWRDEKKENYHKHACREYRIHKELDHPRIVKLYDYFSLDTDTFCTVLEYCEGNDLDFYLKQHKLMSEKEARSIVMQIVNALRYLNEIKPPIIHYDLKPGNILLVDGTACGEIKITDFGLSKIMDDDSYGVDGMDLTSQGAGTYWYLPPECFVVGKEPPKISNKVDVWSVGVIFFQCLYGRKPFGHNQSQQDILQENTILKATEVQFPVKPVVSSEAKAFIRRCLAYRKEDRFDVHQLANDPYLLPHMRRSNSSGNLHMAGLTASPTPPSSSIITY

[6] = biological target: SRPK1 (Homo sapiens, UniProt Q96SB4)
[7] = biological target: T4, VRK1 (Homo sapiens, UniProt Q99986)
T4 sequence (Q99986 1-396): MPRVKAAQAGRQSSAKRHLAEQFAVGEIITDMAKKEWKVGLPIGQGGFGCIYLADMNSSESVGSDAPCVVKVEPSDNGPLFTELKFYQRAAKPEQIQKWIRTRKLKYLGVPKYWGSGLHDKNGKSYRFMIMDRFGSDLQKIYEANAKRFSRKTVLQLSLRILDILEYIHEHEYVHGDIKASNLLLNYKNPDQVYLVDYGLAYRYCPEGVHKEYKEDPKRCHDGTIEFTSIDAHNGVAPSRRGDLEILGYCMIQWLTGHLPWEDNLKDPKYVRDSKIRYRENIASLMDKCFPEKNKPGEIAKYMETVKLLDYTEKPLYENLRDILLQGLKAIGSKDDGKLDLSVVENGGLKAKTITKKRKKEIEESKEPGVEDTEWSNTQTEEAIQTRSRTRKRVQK

[8] = biological target: TAF1 (Homo sapiens, UniProt P21675)
Sequence of TAF1 (P21675 whole entry): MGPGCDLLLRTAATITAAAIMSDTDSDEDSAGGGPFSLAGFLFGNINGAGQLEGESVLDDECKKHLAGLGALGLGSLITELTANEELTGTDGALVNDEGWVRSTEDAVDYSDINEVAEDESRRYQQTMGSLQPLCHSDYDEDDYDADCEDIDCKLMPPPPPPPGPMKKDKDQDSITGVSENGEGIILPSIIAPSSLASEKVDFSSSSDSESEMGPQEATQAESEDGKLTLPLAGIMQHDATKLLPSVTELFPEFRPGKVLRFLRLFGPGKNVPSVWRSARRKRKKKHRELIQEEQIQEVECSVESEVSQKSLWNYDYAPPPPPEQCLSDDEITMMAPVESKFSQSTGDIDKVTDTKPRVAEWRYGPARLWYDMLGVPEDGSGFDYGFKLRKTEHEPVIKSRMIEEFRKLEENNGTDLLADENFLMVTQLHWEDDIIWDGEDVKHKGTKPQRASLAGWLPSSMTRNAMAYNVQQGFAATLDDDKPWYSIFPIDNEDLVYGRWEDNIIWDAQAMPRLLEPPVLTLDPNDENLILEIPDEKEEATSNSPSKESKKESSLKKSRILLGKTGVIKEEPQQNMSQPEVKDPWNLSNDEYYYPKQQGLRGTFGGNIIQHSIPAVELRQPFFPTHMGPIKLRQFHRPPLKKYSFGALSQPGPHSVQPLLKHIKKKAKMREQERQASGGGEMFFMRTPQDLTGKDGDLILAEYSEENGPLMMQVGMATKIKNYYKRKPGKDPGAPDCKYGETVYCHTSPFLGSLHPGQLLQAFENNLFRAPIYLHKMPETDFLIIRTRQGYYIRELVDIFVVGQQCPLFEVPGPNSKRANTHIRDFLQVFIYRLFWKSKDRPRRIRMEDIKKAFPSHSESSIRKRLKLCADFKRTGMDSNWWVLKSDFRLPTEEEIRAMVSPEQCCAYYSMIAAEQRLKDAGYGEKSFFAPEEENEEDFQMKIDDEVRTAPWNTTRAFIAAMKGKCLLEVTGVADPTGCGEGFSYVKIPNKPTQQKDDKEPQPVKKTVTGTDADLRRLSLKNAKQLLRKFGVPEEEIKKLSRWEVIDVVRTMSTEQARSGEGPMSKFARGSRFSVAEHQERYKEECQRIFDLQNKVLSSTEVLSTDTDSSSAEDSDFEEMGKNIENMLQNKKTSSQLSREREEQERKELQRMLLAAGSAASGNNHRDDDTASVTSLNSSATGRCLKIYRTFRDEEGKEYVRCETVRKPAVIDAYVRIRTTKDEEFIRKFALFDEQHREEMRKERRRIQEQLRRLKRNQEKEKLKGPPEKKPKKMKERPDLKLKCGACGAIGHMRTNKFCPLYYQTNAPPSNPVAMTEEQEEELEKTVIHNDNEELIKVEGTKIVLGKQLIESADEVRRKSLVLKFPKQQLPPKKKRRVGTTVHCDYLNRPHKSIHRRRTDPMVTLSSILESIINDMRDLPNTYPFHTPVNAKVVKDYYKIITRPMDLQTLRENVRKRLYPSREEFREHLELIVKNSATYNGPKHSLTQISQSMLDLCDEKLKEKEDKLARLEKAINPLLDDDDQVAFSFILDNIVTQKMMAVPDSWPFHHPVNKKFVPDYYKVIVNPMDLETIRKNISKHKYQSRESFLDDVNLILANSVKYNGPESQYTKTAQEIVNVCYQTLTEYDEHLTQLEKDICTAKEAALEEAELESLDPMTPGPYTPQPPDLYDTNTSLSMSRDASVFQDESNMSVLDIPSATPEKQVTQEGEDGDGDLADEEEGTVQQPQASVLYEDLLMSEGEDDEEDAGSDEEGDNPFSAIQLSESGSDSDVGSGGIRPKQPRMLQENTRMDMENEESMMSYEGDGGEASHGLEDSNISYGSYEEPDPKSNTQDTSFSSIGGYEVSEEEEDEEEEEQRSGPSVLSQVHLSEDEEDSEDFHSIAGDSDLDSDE

Sequence of SRC (P12931 whole entry): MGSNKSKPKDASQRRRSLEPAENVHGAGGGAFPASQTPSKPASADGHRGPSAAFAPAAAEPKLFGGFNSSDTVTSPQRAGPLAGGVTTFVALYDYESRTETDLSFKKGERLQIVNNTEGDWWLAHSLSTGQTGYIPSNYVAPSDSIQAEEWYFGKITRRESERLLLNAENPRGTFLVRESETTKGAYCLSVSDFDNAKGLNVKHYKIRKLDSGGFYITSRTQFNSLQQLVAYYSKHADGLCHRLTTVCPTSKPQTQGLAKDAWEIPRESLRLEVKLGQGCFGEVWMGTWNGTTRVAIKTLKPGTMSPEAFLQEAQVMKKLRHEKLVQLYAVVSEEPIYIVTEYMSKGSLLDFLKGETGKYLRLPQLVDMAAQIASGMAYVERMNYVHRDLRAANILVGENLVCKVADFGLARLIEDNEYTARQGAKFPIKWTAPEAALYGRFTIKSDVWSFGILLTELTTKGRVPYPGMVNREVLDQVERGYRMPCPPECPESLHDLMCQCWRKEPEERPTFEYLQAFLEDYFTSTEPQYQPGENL
Sequence of SRPK1 (Q96SB4 whole entry): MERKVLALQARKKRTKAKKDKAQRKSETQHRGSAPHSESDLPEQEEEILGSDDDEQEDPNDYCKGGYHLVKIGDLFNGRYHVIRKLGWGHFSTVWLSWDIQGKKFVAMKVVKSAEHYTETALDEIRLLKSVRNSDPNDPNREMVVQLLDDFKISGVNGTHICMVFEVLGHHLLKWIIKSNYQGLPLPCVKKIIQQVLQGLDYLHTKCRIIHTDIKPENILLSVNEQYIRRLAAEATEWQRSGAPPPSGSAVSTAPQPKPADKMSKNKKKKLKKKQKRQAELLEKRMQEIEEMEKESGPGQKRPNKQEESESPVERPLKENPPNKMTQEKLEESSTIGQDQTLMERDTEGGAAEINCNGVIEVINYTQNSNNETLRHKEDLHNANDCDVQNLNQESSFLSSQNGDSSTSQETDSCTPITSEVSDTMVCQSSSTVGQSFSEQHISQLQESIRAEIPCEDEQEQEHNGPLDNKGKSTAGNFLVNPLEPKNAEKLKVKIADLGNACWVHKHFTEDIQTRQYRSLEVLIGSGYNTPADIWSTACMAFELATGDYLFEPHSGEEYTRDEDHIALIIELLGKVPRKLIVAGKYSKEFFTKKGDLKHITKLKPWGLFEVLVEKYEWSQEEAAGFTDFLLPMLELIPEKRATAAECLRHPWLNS

ΔTm 22 [1]: 0.6 °C | ΔTm 22 [2]: 9.7 °C | ΔTm 22 [3]: -3.0 °C | ΔTm 22 [4]: 3.7 °C | ΔTm 22 [5]: 0.2 °C | ΔTm 22 [6]: -0.2 °C | ΔTm 22 [7]: -0.7 °C | ΔTm 22 [8]: 0.3 °C
Compound: CNc1ncc2cc(-c3ccc(-c4cccc(C)n4)cc3Cl)c(=O)n(CCC3CCNCC3)c2n1 [compound 22, 6-(2-Chloro-4-(6-methylpyridin-2-yl)phenyl)-2-(methylamino)-8-(2-(piperidin-4-yl)ethyl)pyrido[2,3-d]pyrimidin-7(8H)-one]

ΔTm MRLW5 (20) [1]: 0.9 °C | ΔTm MRLW5 (20) [2]: 8.6 °C | ΔTm MRLW5 (20) [3]: 1.8 °C | ΔTm MRLW5 (20) [4]: 2.7 °C | ΔTm MRLW5 (20) [5]: 0.6 °C | ΔTm MRLW5 (20) [6]: -0.2 °C | ΔTm MRLW5 (20) [7]: 0.0 °C | ΔTm MRLW5 (20) [8]: 0.0 °C
Compound: CNc1ncc2cc(-c3ccc(-c4cccc(C)n4)cc3Cl)c(=O)n(CCCCN)c2n1 [compound 20, MRLW5]

ΔTm 25 [1]: 1.0 °C | ΔTm 25 [2]: 11.1 °C | ΔTm 25 [3]: 13.0 °C | ΔTm 25 [4]: 1.8 °C | ΔTm 25 [5]: -0.9 °C | ΔTm 25 [6]: 0.1 °C | ΔTm 25 [7]: 0.6 °C | ΔTm 25 [8]: -0.1 °C
Compound: Cc1cccc(-c2ccc(-c3cc4cnc(NCCCc5ccc(N)cc5)nc4n(CCCCN)c3=O)c(Cl)c2)n1 [compound 25, 8-(4-Aminobutyl)-2-((3-(4-aminophenyl)propyl)amino)-6-(2-chloro-4-(6-methylpyridin-2-yl)phenyl)pyrido[2,3-d]pyrimidin-7(8H)-one]

ΔTm 28 [1]: 3.4 °C | ΔTm 28 [2]: 6.5 °C | ΔTm 28 [3]: 10.4 °C | ΔTm 28 [4]: -11.0 °C | ΔTm 28 [5]: -1.8 °C | ΔTm 28 [6]: 0.1 °C | ΔTm 28 [7]: 0.8 °C | ΔTm 28 [8]: 0.4 °C
Compound: Cc1cccc(-c2ccc(-c3cc4cnc(Nc5cc(C(F)(F)F)ccc5C)nc4n(CCCCN)c3=O)c(Cl)c2)n1 [compound 28, 8-(4-Aminobutyl)-6-(2-chloro-4-(6-methylpyridin-2-yl)phenyl)-2-((2-methyl-5-(trifluoromethyl)phenyl)amino)pyrido[2,3-d]pyrimidin-7(8H)-one]

ΔTm MR30 (27) [1]: -0.5 °C | ΔTm MR30 (27) [2]: 7.3 °C | ΔTm MR30 (27) [3]: 10.0 °C | ΔTm MR30 (27) [4]: -0.3 °C | ΔTm MR30 (27) [5]: -2.0 °C | ΔTm MR30 (27) [6]: -0.2 °C | ΔTm MR30 (27) [7]: -0.1 °C | ΔTm MR30 (27) [8]: 0.0 °C
Compound: Cc1cccc(-c2ccc(-c3cc4cnc(NCCCN5CCCC5=O)nc4n(CCCCN)c3=O)c(Cl)c2)n1 [compound 27, MR30]

ΔTm MR26 (26) [1]: 1.4 °C | ΔTm MR26 (26) [2]: 6.7 °C | ΔTm MR26 (26) [3]: 10.4 °C | ΔTm MR26 (26) [4]: -0.2 °C | ΔTm MR26 (26) [5]: -1.6 °C | ΔTm MR26 (26) [6]: 0.1 °C | ΔTm MR26 (26) [7]: 0.4 °C | ΔTm MR26 (26) [8]: 0.0 °C
Compound: Cc1cccc(-c2ccc(-c3cc4cnc(NCCCN5CCOCC5)nc4n(CCCCN)c3=O)c(Cl)c2)n1 [compound 26, MR26]

ΔTm 30 [1]: 4.6 °C | ΔTm 30 [2]: 14.9 °C | ΔTm 30 [3]: 16.6 °C | ΔTm 30 [4]: 5.6 °C | ΔTm 30 [5]: -0.9 °C | ΔTm 30 [6]: 0.0 °C | ΔTm 30 [7]: 0.3 °C | ΔTm 30 [8]: -0.5 °C
Compound: Cc1cccc(-c2ccc(-c3cc4cnc(Nc5ccc(CCCO)cc5)nc4n(CCCCN)c3=O)c(Cl)c2)n1 [compound 30, 8-(4-Aminobutyl)-6-(2-chloro-4-(6-methylpyridin-2-yl)phenyl)-2-((4-(3-hydroxypropyl)phenyl)amino)pyrido[2,3-d]pyrimidin-7(8H)-one]

ΔTm 31 [1]: 5.0 °C | ΔTm 31 [2]: 14.5 °C | ΔTm 31 [3]: 16.6 °C | ΔTm 31 [4]: 5.1 °C | ΔTm 31 [5]: -1.6 °C | ΔTm 31 [6]: 0.3 °C | ΔTm 31 [7]: 0.9 °C | ΔTm 31 [8]: -1.0 °C
Compound: Cc1cccc(-c2ccc(-c3cc4cnc(Nc5ccc(O)cc5)nc4n(CCCCN)c3=O)c(Cl)c2)n1 [compound 31, 8-(4-Aminobutyl)-6-(2-chloro-4-(6-methylpyridin-2-yl)phenyl)-2-((4-hydroxyphenyl)amino) pyrido[2,3-d]pyrimidin-7(8H)-one]

ΔTm 32 [1]: 5.1 °C | ΔTm 32 [2]: 14.3 °C | ΔTm 32 [3]: 16.6 °C | ΔTm 32 [4]: 2.2 °C | ΔTm 32 [5]: -0.8 °C | ΔTm 32 [6]: 0.4 °C | ΔTm 32 [7]: 0.8 °C | ΔTm 32 [8]: 0.5 °C
Compound: Cc1cccc(-c2ccc(-c3cc4cnc(Nc5ccc(C)c(O)c5)nc4n(CCCCN)c3=O)c(Cl)c2)n1 [compound 32, 8-(4-Aminobutyl)-6-(2-chloro-4-(6-methylpyridin-2-yl)phenyl)-2-((3-hydroxy-4-methylphenyl)amino)pyrido[2,3-d]pyrimidin-7(8H)-one]

ΔTm 29 [1]: 1.9 °C | ΔTm 29 [2]: 5.8 °C | ΔTm 29 [3]: 8.8 °C | ΔTm 29 [4]: -0.4 °C | ΔTm 29 [5]: -1.5 °C | ΔTm 29 [6]: 0.1 °C | ΔTm 29 [7]: 0.4 °C | ΔTm 29 [8]: 0.2 °C
Compound: Cc1cccc(-c2ccc(-c3cc4cnc(NCCCN5CCNCC5)nc4n(CCCCN)c3=O)c(Cl)c2)n1 [compound 29, 8-(4-Aminobutyl)-6-(2-chloro-4-(6-methylpyridin-2-yl)phenyl)-2-((3-(piperazin-1-yl)propyl)amino)pyrido[2,3-d]pyrimidin-7(8H)-one]

ΔTm 23 [1]: 1.2 °C | ΔTm 23 [2]: 13.5 °C | ΔTm 23 [3]: 3.3 °C | ΔTm 23 [4]: 3.5 °C | ΔTm 23 [5]: 0.6 °C | ΔTm 23 [6]: -0.5 °C | ΔTm 23 [7]: 0.5 °C | ΔTm 23 [8]: -0.5 °C
Compound: CNc1ncc2cc(-c3ccc(-c4cccc(C)n4)cc3Cl)c(=O)n(C[C@H]3CC[C@H](N)CC3)c2n1 [compound 23, 23]
